Experimental data published in patent US9782484B2, “Method for producing a composite organic compound powder for medical use” (ACTIVUS PHARMA CO., LTD., priority 2008, dated 2017).

Key:
[1] = Average particle diameter of dried powder converted from BET specific surface area; format: physicochemical; settings: starting organic compound powder, Table 1 and text
Method: According to the present invention, the “average particle diameter converted from the BET specific surface area” is calculated by converting a value of the specific surface area measured by the BET flow method (one-point type) to the diameter of a hypothetical spherical particle. The following formula 1 is a conversion formula for converting a value of the specific surface area to the diameter. Here, D is an average particle diameter, ρ is a solid density, S is a specific surface area, and α is a shape factor. α is 6 for spherical particles. D=α/(ρ·S) (formula 1)
The BET flow method is preferably a method for measuring the specific surface area by the following procedure. A mixed gas of nitrogen and helium is flowed into a cell in which a sample to be measured is placed, followed by cooling the sample with liquid nitrogen. Then, only nitrogen gas adsorbs to the surface of the sample. Subsequently, when the cell is returned to ordinary temperature, the desorption of the gas occurs. During the desorption of gas, the proportion of nitrogen gas in the mixed gas flowing through one detector becomes larger than the proportion of nitrogen gas flowing through another detector. The difference between signals from these detectors represents the adsorption amount, enabling the measurement of the specific surface area.
Fine-pulverizing experiments are first described in each of which a carboxyvinyl polymer was added. The average particle diameter before and after fine-pulverizing for a dried powder was calculated by converting, by the above-described formula 1, the BET specific surface area measured using a BET type specific surface area analyzer (Macsorb model […], from Mountech Co., Ltd.). The observation of the powder before and after fine-pulverizing was carried out using a scanning electron microscope (model SEM VE-7800, from Keyence Corporation).
Fine-pulverizing experiments will now be described in each of which a carboxyvinyl polymer and a lecithin were added. The average particle diameter before and after fine-pulverizing for a powder was measured using a BET type specific surface area analyzer (Macsorb model HM-1201, from Mountech Co., Ltd.). The particle diameter of particles in a suspension was measured using a particle size distribution analyzer (Delsa Nano S, from Beckman Coulter, Inc.). “D50” is the diameter of a particle having an integrated value of 50% as counted in order of decreasing particle size (or in order of increasing particle size) (called “median particle diameter”) in the size distribution. “D90” is the diameter of a particle having an integrated value of 90% as counted in order of increasing particle size (called “90% median diameter”) in the size distribution. “Dv” is the volume average diameter (called “average particle diameter”). […]

[2] = Size distribution of particles in suspension by particle size distribution analyzer (Delsa Nano S); format: physicochemical; settings: starting compound suspended with 0.03% sodium lauryl sulfate
Method: Fine-pulverizing experiments will now be described in each of which a carboxyvinyl polymer and a lecithin were added. The average particle diameter before and after fine-pulverizing for a powder was measured using a BET type specific surface area analyzer (Macsorb model HM-1201, from Mountech Co., Ltd.). The particle diameter of particles in a suspension was measured using a particle size distribution analyzer (Delsa Nano S, from Beckman Coulter, Inc.). “D50” is the diameter of a particle having an integrated value of 50% as counted in order of decreasing particle size (or in order of increasing particle size) (called “median particle diameter”) in the size distribution. “D90” is the diameter of a particle having an integrated value of 90% as counted in order of increasing particle size (called “90% median diameter”) in the size distribution. “Dv” is the volume average diameter (called “average particle diameter”).
An experiment of improving a collection efficiency by addition of a lecithin to fine-pulverized particles will now be described. Unless otherwise stated, the average particle diameter of particles was measured using a BET type specific surface area analyzer (Macsorb model HM-1201, from Mountech Co., Ltd.). The particle diameter of particles in a suspension was measured using a particle size distribution analyzer (Delsa Nano S, from Beckman Coulter, Inc.). “D50” is the diameter of a particle having an integrated value of 50% as counted in order of decreasing particle size (or in order of increasing particle size) (called “median particle diameter”) in the size distribution. “D90” is the diameter of a particle having an integrated value of 90% as counted in order of increasing particle size (called “90% median diameter”) in the size distribution. “Dv” is the volume average diameter (called “average particle diameter”).

With `CCC(=O)O[C@]1(C(=O)SCF)[C@H](C)C[C@H]2[C@@H]3C[C@H](F)C4=CC(=O)C=C[C@]4(C)[C@@]3(F)[C@@H](O)C[C@@]21C` [fluticasone propionate] the “Average Particle Diameter before Fine-pulverizing” value [1] was 7,850 nm.

For `COc1ccc2c(c1)c(CC(=O)O)c(C)n2C(=O)c1ccc(Cl)cc1` [indomethacin], the “Average Particle Diameter before Fine-pulverizing” value [1] was 3,960 nm.

In the case of `C[C@@H]1[C@H](O)[C@@H](C)/C=C/C=C/C=C/C=C/C=C/C=C/C=C/[C@H](O[C@@H]2O[C@H](C)[C@@H](O)[C@H](N)[C@@H]2O)C[C@@H]2O[C@](O)(C[C@@H](O)C[C@@H](O)[C@H](O)CC[C@@H](O)C[C@@H](O)CC(=O)O[C@H]1C)C[C@H](O)[C@H]2C(=O)O` [amphotericin B], the “90% median diameter (D90) before fine-pulverizing” value [2] is reported as 15,181 nm, the “average particle diameter (Dv) before fine-pulverizing” value [2] is reported as 13,423 nm and the “median particle diameter (D50) before fine-pulverizing” value [2] is reported as 11,843 nm.

For `Clc1ccc(COC(Cn2ccnc2)c2ccc(Cl)cc2Cl)c(Cl)c1` (stereo not shown) [miconazole], the “Average Particle Diameter before Fine-pulverizing” value [1] was 10,900 nm.

For `Nc1nc2c(ncn2COCCO)c(=O)[nH]1` [aciclovir], the “90% median diameter (D90) before fine-pulverizing” value [2] was 69,371 nm, the “average particle diameter (Dv) before fine-pulverizing” value [2] was 60,371 nm and the “median particle diameter (D50) before fine-pulverizing” value [2] was 52,997 nm.

In the case of `O=C(O)Cc1ccc(-c2ccccc2)cc1` [felbinac], the “Average Particle Diameter before Fine-pulverizing” value [1] is reported as 34,000 nm.
